Data: patent publication US10434083B2, “Transmammary delivery of cyclooxygenase-2 inhibitors for analgesia in neonates” (Iowa State University Research Foundation, Inc., priority 2018, dated 2019)
Like-named read-outs stand apart in the source and are kept apart here.

Experiment: Firocoxib pharmacokinetics in sows following IM administration (Example 2)
Type: in vivo, swine
Conditions: for AUC(0-t) / AUC(0-inf) / CL/F / Cmax / MRT inf / Tmax / MRT last / Vd/F / half-life: female, Yorkshire×Landrace, plasma; for AUC(0-t) / AUC(0-inf): im; for MRT last: read-out: MRT0-last; for Vd/F: read-out: VZ/F; for half-life: read-out: plasma elimination half-life (T1/2λz), range over dose groups
Description: Protocols involved intramuscular injection of Firocoxib to lactating sows at either 0.5, 1.0, 1.5 or 2 mg/kg, and analysis in sows and select piglets at 21 days post treatment. Pregnant Yorkshire×Landrace sows (mean±SEM bodyweight, 250.3±7.61 kg) that were approximately 1 week before farrowing were sourced from a commercial swine farm. Each sow was examined by a veterinarian to confirm that she was healthy and pregnant. A unique numerical ear tag (Allflex Global Ear Tags, Allflex USA, Inc., DFW Airport, TX) was placed in the right ear of each sow for identification. The sows were housed in a commercial swine operation at MVS (West Point, Nebr.) in accordance with the recommendations in the Guide for the Care and Use of Agricultural Animals in Agricultural Use and Research and Teaching (Guide for the Care and Use of Agricultural Animals in Agricultural Research and Teaching, 2010). Sows were placed in Quad- or Euro-style farrowing stalls (Thorp Equipment, Thorp, Wis.), depending on availability. Regardless of stall type, each sow was housed in a farrowing crate measuring 0.6 m×2.1 m. Quad and Euro crates had piglet creep areas of 7.0 m^2 and 6.4 m^2, respectively. After farrowing, a heat lamp was provided on one side of the creep area for the piglets in each crate. All sows were fed a diet that met or exceeded National Research Council (NRC, 2012) nutrient requirements and water was provided ad libitum. Each litter provided at least six male and three female piglets for sampling with the exception of one sow that had 5 males and 4 females in the litter, and one sow that had 3 males and 6 females in the litter. Piglets were clinically examined and weighed on Study Day 0 prior to dosing. Cross fostering of the litters was permitted. Bodyweights were used to randomly assign sows to 1 of 4 treatment groups (n=4 sows/group) as detailed in Table 3.
A sample size of 4 sows was selected to describe the pharmacokinetics of firocoxib. For the comparison of plasma cortisol concentrations and average daily gain in bodyweight (ADG), a sample size of 36 piglets/treatment group was calculated to provide Statistical Power of 0.8 assuming an alpha of 0.05, sigma of 0.54 and delta of 0.20. At the time of study commencement (T0), sows received a single dose of firocoxib (Equioxx Injection, Merial, Duluth, Ga.) (Lot number 4VP07, Expiration Date November 2017) administered at either 0.5 mg/kg, 1.0 mg/kg, 1.5 mg/kg, or 2.0 mg/kg by IM injection into the right lateral neck using an 18-gauge, 1.5-inch needle attached to a 20-mL syringe (Table 3). In cases where the calculated dose volume exceeded 20-mL, the remaining volume was administered via IM injection in the left lateral neck muscle.
Blood samples for firocoxib determination were collected from the sows and three piglets/litter (two male and one female piglet at each time point) at 0, 2, 4, 6, 8, 12, 24, 48, 72, 96, and 120 h post-drug injection to the sow. The blood sample from each sow (8 mL/sample) was collected via the left or right jugular vein using a 25.4-mm, 16-gauge hypodermic needle (Air-Tite Products, Virginia Beach, Va.) attached to a 12-mL Luer-Lok syringe (TycoHealth Care, Mansfield, Mass.). During blood collection, a pig snare was used for manual restraint of each sow in her crate. The blood samples (2 mL/sample) from the piglets were collected from the left or right cranial vena cava using a 3.8-cm, 20-gauge hypodermic needle (TycoHealth Care, Mansfield, Mass.) attached to a 3-mL syringe (TycoHealth Care, Mansfield, Mass.). Physical restraint of the piglet was achieved by placing the animal in a supine position during sample collection. Blood samples were transferred to 6-mL evacuated tubes that contained lithium heparin (Vacuette plasma tubes, Greiner Bio-One, Monroe, N.C.) that were stored on ice for up to 2 h before processing. The blood samples were centrifuged for 10 min at 1,500×g. The plasma was then removed, placed in cryovials, and frozen at −80° C. until analysis. […]

Molecule CC1(C)OC(=O)C(OCC2CC2)=C1c1ccc(S(C)(=O)=O)cc1 [firocoxib] has an AUC(0-t) (pig, 0.5 mg/kg, sow dose 0.5 mg/kg (Table 7), read-out: Sow AUClast) of 1530 ng·h/mL, an AUC(0-inf) (pig, 0.5 mg/kg, sow dose 0.5 mg/kg (Table 7), read-out: Sow AUC∞) of 1590 ng·h/mL and an AUC(0-t) (pig, 0.5 mg/kg, sows, 0.5 mg/kg IM, mean, read-out: AUC0-24h) of 1030 ng·h/mL. For the same molecule, the AUC(0-t) (pig, 0.5 mg/kg, sows, 0.5 mg/kg IM, mean, read-out: AUC0-last) was 1530 ng·h/mL, the AUC(0-inf) (pig, 0.5 mg/kg, sows, 0.5 mg/kg IM, mean, read-out: AUCINF) was 1590 ng·h/mL and the AUC(0-t) (pig, 1 mg/kg, sow dose 1.0 mg/kg (Table 7), read-out: Sow AUClast) was 5330 ng·h/mL. It also gave an AUC(0-inf) (pig, 1 mg/kg, sow dose 1.0 mg/kg (Table 7), read-out: Sow AUC∞) of 5620 ng·h/mL, an AUC(0-t) (pig, 1 mg/kg, sows, 1.0 mg/kg IM, mean, read-out: AUC0-24h) of 2670 ng·h/mL and an AUC(0-t) (pig, 1 mg/kg, sows, 1.0 mg/kg IM, mean, read-out: AUC0-last) of 5330 ng·h/mL. The AUC(0-inf) (pig, 1 mg/kg, sows, 1.0 mg/kg IM, mean, read-out: AUCINF) was 5620 ng·h/mL, the AUC(0-t) (pig, 1.5 mg/kg, sow dose 1.5 mg/kg (Table 7), read-out: Sow AUClast) was 8320 ng·h/mL and the AUC(0-inf) (pig, 1.5 mg/kg, sow dose 1.5 mg/kg (Table 7), read-out: Sow AUC∞) was 8660 ng·h/mL. The AUC(0-t) (pig, 1.5 mg/kg, sows, 1.5 mg/kg IM, mean, read-out: AUC0-24h) was 4840 ng·h/mL, the AUC(0-t) (pig, 1.5 mg/kg, sows, 1.5 mg/kg IM, mean, read-out: AUC0-last) was 8320 ng·h/mL and the AUC(0-inf) (pig, 1.5 mg/kg, sows, 1.5 mg/kg IM, mean, read-out: AUCINF) was 8660 ng·h/mL. It also gave an AUC(0-t) (pig, 2 mg/kg, sow dose 2.0 mg/kg (Table 7), read-out: Sow AUClast) of 12700 ng·h/mL, an AUC(0-inf) (pig, 2 mg/kg, sow dose 2.0 mg/kg (Table 7), read-out: Sow AUC∞) of 13700 ng·h/mL and an AUC(0-t) (pig, 2 mg/kg, sows, 2.0 mg/kg IM, mean, read-out: AUC0-24h) of 6640 ng·h/mL. It also gave an AUC(0-t) (pig, 2 mg/kg, sows, 2.0 mg/kg IM, mean, read-out: AUC0-last) of 12700 ng·h/mL, an AUC(0-inf) (pig, 2 mg/kg, sows, 2.0 mg/kg IM, mean, read-out: AUCINF) of 13700 ng·h/mL and a CL/F (pig, sows, 0.5 mg/kg IM, mean) of 5.5 mL/min/kg. The Cmax (pig, sows, 0.5 mg/kg IM, mean) was 108 ± 15.2 ng/mL, the MRT inf (pig, sows, 0.5 mg/kg IM, mean) was 29.4 h and the Tmax (pig, sows, 0.5 mg/kg IM, mean) was 3.5 h. It also gave an MRT last (pig, sows, 0.5 mg/kg IM, mean) of 27.2 h, a Vd/F (pig, sows, 0.5 mg/kg IM, mean) of 13.8 L/kg and a CL/F (pig, sows, 1.0 mg/kg IM, mean) of 3.5 mL/min/kg. For the same molecule, the Cmax (pig, sows, 1.0 mg/kg IM, mean) was 158 ± 24.9 ng/mL, the MRT inf (pig, sows, 1.0 mg/kg IM, mean) was 34.8 h and the Tmax (pig, sows, 1.0 mg/kg IM, mean) was 5.5 h. The MRT last (pig, sows, 1.0 mg/kg IM, mean) was 29.4 h, the Vd/F (pig, sows, 1.0 mg/kg IM, mean) was 7.82 L/kg and the CL/F (pig, sows, 1.5 mg/kg IM, mean) was 3.17 mL/min/kg. It also gave a Cmax (pig, sows, 1.5 mg/kg IM, mean) of 344 ± 78.9 ng/mL, an MRT inf (pig, sows, 1.5 mg/kg IM, mean) of 33.5 h and a Tmax (pig, sows, 1.5 mg/kg IM, mean) of 3 h. It also gave an MRT last (pig, sows, 1.5 mg/kg IM, mean) of 26.4 h, a Vd/F (pig, sows, 1.5 mg/kg IM, mean) of 9.12 L/kg and a CL/F (pig, sows, 2.0 mg/kg IM, mean) of 3 mL/min/kg. For the same molecule, the Cmax (pig, sows, 2.0 mg/kg IM, mean) was 453 ± 90.3 ng/mL, the MRT inf (pig, sows, 2.0 mg/kg IM, mean) was 36.8 h and the Tmax (pig, sows, 2.0 mg/kg IM, mean) was 4.5 h. It also gave an MRT last (pig, sows, 2.0 mg/kg IM, mean) of 29.1 h, a Vd/F (pig, sows, 2.0 mg/kg IM, mean) of 7.75 L/kg and a half-life (pig, sows, 0.5-2.0 mg/kg IM) of 26.7 to 31.1 h. For the same molecule, the half-life (swine, sows, 0.5-2.0 mg/kg IM) was 26.7 to 31.1 h, the AUC_Exp (sows, 0.5 mg/kg IM, mean) was 3.39% and the AUMC (sows, 0.5 mg/kg IM, mean) was 31765 h^2 × ng/mL. It also gave a T1/2λZ (sows, 0.5 mg/kg IM, mean) of 28.87 h, a λZ (sows, 0.5 mg/kg IM, mean) of 0.03 h⁻¹ and an AUC_Exp (sows, 1.0 mg/kg IM, mean) of 4.15%. For the same molecule, the AUMC (sows, 1.0 mg/kg IM, mean) was 164892 h^2 × ng/mL, the T1/2λZ (sows, 1.0 mg/kg IM, mean) was 26.70 h and the λZ (sows, 1.0 mg/kg IM, mean) was 0.03 h⁻¹. It also gave an AUC_Exp (sows, 1.5 mg/kg IM, mean) of 4.98%, an AUMC (sows, 1.5 mg/kg IM, mean) of 215365 h^2 × ng/mL and a T1/2λZ (sows, 1.5 mg/kg IM, mean) of 29.89 h. It also gave a λZ (sows, 1.5 mg/kg IM, mean) of 0.02 h⁻¹, an AUC_Exp (sows, 2.0 mg/kg IM, mean) of 5.61% and an AUMC (sows, 2.0 mg/kg IM, mean) of 392753 h^2 × ng/mL. For the same molecule, the T1/2λZ (sows, 2.0 mg/kg IM, mean) was 31.09 h, the λZ (sows, 2.0 mg/kg IM, mean) was 0.02 h⁻¹ and the “volume of distribution, range over dose groups” value (sows, 0.5-2.0 mg/kg IM) was 7.75 to 13.8 L/kg. For the same molecule, the “volume of distribution in sows, fold larger than flunixin” value (vs flunixin (0.30 L/kg) in pigs) was “approximately 26 fold”, the “elimination half-life in sows, fold longer than flunixin” value (vs flunixin (7.5 h) in pigs) was roughly 4 fold and the “volume of distribution in sows, fold greater than ketoprofen” value (vs ketoprofen (0.35 L/kg) in pigs) was roughly 22 fold. For the same molecule, the “elimination half-life in sows, fold longer than ketoprofen” value (vs ketoprofen (3 h) in pigs) was “approximately 10 fold”, the “volume of distribution in sows, fold greater than meloxicam” value (vs meloxicam (0.42 L/kg) in pigs) was roughly 18 fold and the “elimination half-life in sows, fold longer than meloxicam” value (vs meloxicam (6 h) in pigs) was roughly 5 fold.
